In general, IC50 refers to the midpoint of a concentration-inhibition curve. For orientation: AC50 means the concentration giving half of the maximal activity seen. As a reminder, the EC50 is the concentration that produces a half-maximal response. In general, CC50 refers to the concentration at which the toxic effect on the cells reaches its halfway point. Broadly, the Ki is the equilibrium dissociation constant of an inhibitor or competing ligand from its target. Usually IC90 stands for the concentration needed for an effect of 90%.

The text below walks through data of ChEMBL document CHEMBL1201862, “PubChem BioAssay data set” (2004).

Where “and” joins values, the source holds several entries; their conditions need not be identical. Identical values can stand only once. Calls of active or inactive are those of the source.

A short description of test [1]: Concentration-dependent survival of SW480 colon cancer line, luminescence detection with CellTiter-Glo, half-maximal inhibitory concentration (AID 1117338). Type of test: functional. On the technique in general: Cellular ATP, detected with luciferase, serves as a proxy for viable cell number.
Test [2] in a line: SNU-C1 cell viability reduction, dose response, CellTiter-Glo luminescence (AID 1117323). Type of test: functional, cell-based.
Test [3] is described as follows: cytotoxicity toward HCT116 cells – cell-based, CellTiter-Glo luminescence, IC50, dose response (AID 1117332). Type of test: functional. The conditions noted are these: HCT-116.
Test [4] can be described thus: HCT116 cell viability decrease, GSK3B pretreatment – CellTiter-Glo, IC50, dose response (AID 1117339). It counts as functional. The note with it: HCT-116.
A short description of test [5]: CellTiter-Glo luminescent dose response of DLD-1 viability loss (AID 1117352). Type of test: functional.
Test [6] is described as follows: cytotoxicity toward Colo320 cells – cell-based, CellTiter-Glo luminescence, IC50, dose response (AID 1117334). The conditions noted are these: COLO 320. It counts as functional.
Test [7] can be described thus: cytotoxicity toward HT-29 cells – cell-based, CellTiter-Glo luminescence, IC50, dose response (AID 1117330). Type of test: functional.
The nature of test [8]: RKO cell viability reduction, dose response, CellTiter-Glo luminescence (AID 1117322). Type of test: functional.
A short description of test [9]: cells. The conditions noted are these: HEK293.
The nature of test [10]: HepG2 cell cytotoxicity, dose response, cytotoxicity control, ATP luminescence, cherry-pick, set 6 (AID 1053125). It counts as functional, cell-based.
A short description of test [11]: cells.
Test [12] deals with RNA-editing ligase 1, mitochondrial (Trypanosoma brucei brucei, UniProt P86926). As to the kind of experiment: TbREL1 ligase inhibitors, dose response, biochemical, fluorescence, Trypanosoma brucei (AID 1117295). Type of test: functional.
In test [13] the test system is BJ. As to the kind of experiment: cytotoxicity toward BJ-TERT-LT-ST fibroblasts, dose response, cell-based, RAS-independent, luminescence (AID 1935).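 Further: BJ fibroblasts immortalized with TERT plus LT and ST oncogenes.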 Type of test: functional. The conditions noted are these: Homo sapiens.
The nature of test [14]: cytotoxicity in HEK-293T cells, dose response, cytotoxicity control for TCR NF-kB inhibitor project, luminescence, T-cell screen hits (AID 489026).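 Further: cells exposed to compound about 14 hours before the viability readout.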 It counts as functional, cell-based.
Test [15] concerns BJ. As to the kind of experiment: cytotoxicity toward BJ-TERT fibroblasts, dose response, cell-based, RAS-independent, luminescence (AID 1933). Type of test: functional. The note with it: Homo sapiens.
Test [16] concerns BJ. As to the kind of experiment: cells. Type of test: functional, cell-based. The note with it: Homo sapiens.
Test [17] can be described thus: cytotoxicity toward DRD oncogenic fibroblasts, dose response, cell-based, non-viral oncogenic, luminescence (AID 1934). Type of test: functional. The note with it: Homo sapiens.
Test [18] is described as follows: BHK-21 cell cytotoxicity, cytotoxicity control for flavivirus guanylyltransferase probe project, secondary screen (AID 624078). Type of test: functional.
Test [19] in a line: NIH-3T3 fibroblast cytotoxicity, dose response, cytotoxicity control, cell-based, fluorescence, Alamar Blue, secondary assay (AID 2327).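 Further: NIH-3T3 mouse fibroblasts cultured with fluconazole at 8 µg/mL.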 It counts as functional. A general note: Resazurin is reduced to fluorescent resorufin, in cell work by metabolically active cells.
The target of test [20] is T1, Serine/threonine-protein phosphatase (Candida dubliniensis (strain CD36 / CBS 7987 / NCPF 3949 / NRRLY-17841) (Yeast), UniProt B9W6M3).
T1 sequence (B9W6M3 whole entry): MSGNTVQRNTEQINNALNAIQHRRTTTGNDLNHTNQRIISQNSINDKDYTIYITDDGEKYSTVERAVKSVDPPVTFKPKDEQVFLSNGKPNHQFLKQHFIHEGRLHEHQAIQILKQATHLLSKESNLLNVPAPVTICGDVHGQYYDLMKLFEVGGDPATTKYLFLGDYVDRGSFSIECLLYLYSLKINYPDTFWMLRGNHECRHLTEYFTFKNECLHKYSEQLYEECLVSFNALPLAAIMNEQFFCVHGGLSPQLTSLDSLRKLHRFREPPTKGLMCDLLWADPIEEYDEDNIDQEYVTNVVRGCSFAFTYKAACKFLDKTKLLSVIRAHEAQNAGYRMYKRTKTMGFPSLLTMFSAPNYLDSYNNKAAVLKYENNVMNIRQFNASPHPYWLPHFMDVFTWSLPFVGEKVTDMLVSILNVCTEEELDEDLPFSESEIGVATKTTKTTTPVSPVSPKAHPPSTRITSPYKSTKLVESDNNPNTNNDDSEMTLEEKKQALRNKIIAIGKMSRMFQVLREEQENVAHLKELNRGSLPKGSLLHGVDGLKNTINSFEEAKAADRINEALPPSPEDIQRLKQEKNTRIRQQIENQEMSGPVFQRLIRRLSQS
As to the kind of experiment: calcineurin pathway inhibitors in yeast reporter, dose response, S. cerevisiae, CDRE-lacZ, luminescence, secondary (AID 2388).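 Further: yeast reporter cells carrying a calcineurin-responsive lacZ construct stimulated with calcium chloride; luminescent beta-galactosidase reporter signal in whole cells rather than isolated phosphatase activity; potency for inhibition where a drop in reporter signal means calcineurin blockade.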 Type of test: functional, cell-based.

In test [21] the target is COUP transcription factor 2 (Homo sapiens, UniProt P24468). As to the kind of experiment: Luminescence-based cell-based high throughput dose response assay to identify inhibitors of COUP-TFII (NR2F2). Type of test: functional.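 Further: HEK293 cells transiently cotransfected with COUP-TFII expression vector and reporter; luciferase reporter luminescence driven by COUP-TFII from the pX2-168 reporter plasmid.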
For another test, the target named is Galanin receptor type 3 (Homo sapiens, UniProt O60755). In words: Fluorescence-based cell-based primary high throughput dose response assay to identify antagonists of the Galanin Receptor 3 (GalR3). It counts as functional.
Test [22] has as its target ATP-dependent molecular chaperone HSP82 (Candida albicans (strain WO-1) (Yeast), UniProt C4YTQ8). In words: loss of DOC-induced GRE-beta-galactosidase reporter signal, dose response, Hsp90 inhibitor project, S. cerevisiae, luminescence (AID 2400).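 Further: beta-galactosidase luminescence from glucocorticoid response element reporter as proxy for Hsp90 function; inhibitor potency where signal loss means Hsp90 inhibition.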 Type of test: functional, cell-based.
The next test has as its system INS1. In words: beta cell apoptosis inhibitors, cytokine rescue, dose response, luminescence, retest (AID 449756).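 Further: cell death triggered by IL-1 beta plus TNF-alpha plus IFN-gamma mixture; protective hits raise ATP signal compared with cytokine alone wells.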 It counts as functional, cell-based. The conditions noted are these: Rattus norvegicus, INS1.
Test [23] can be described thus: HepG2 cell cytotoxicity, dose response, cytotoxicity control for Shn3 inhibitor project, CellTiter-Glo, cherry-picked (AID 624134). Type of test: functional, cell-based.
Test [24] can be described thus: C. albicans growth with fluconazole, confirmation, fluorescence, retest (AID 2467). It counts as functional, cell-based.
A short description of test [25]: Shn3 3'UTR reporter inhibitors, dose response, cell-based, Clone20 osteoblasts, firefly luciferase, cherry-picked (AID 624132).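 Further: firefly luciferase luminescence from reporter carrying the Shn3 3'UTR in osteoblasts.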 It counts as functional.
Test [26] can be described thus: control 3'UTR Renilla luciferase suppression, dose response, counter-screen for Shn3 inhibitor project, cell-based, Clone20-Shn3RL, cherry-picked (AID 624133). Type of test: functional. For orientation: Counterscreens check selectivity or assay interference.
Test [27] in a line: cells. The note with it: HEK-CNG. Type of test: functional, cell-based.
In test [28] the target is C-X-C chemokine receptor type 4 (Homo sapiens, UniProt P61073). As to the kind of experiment: SAR analysis of small molecule antagonists of the CXCR6 receptor using a CXCR4 receptor luminescent beta-arrestin counterscreen. It counts as functional.
For test [29], the target named is C-C chemokine receptor type 6 (Homo sapiens, UniProt P51684). As to the kind of experiment: SAR analysis of small molecule antagonists of the CXCR6 receptor using a CCR6 receptor luminescent beta-arrestin counterscreen. It counts as functional.
The nature of test [30]: THP-1 cell cytotoxicity, dose response, cytotoxicity control for Vif-APOBEC3G degradation inhibitor project, THP-1 cells (AID 1117359). It counts as functional. The note with it: Human immunodeficiency virus 1, THP-1.
The target of test [31] is Glutathione-S-transferase (Schistosoma japonicum, UniProt Q26513). In words: biotin-GST/anti-GST TR-FRET signal inhibitors, dose response, artefact control for Vif-APOBEC3G degradation inhibitor project, biochemical (AID 1117362). It counts as functional.
For another test, the target named is fMet-Leu-Phe receptor (Homo sapiens, UniProt P21462). As to the kind of experiment: FPR ligands, dose response (AID 519). Type of test: functional.
Test [32] addresses NAD-dependent protein deacylase sirtuin-5, mitochondrial (Homo sapiens, UniProt Q9NXA8). In words: SIRT5 deacylase inhibitors, dose response, biochemical, fluorescence imaging, cherry-pick, set 6 (AID 720597).
Test [33] in a line: A549 cell cytotoxicity, dose response, cytotoxicity control, CellTiter-Glo luminescence, dry powder, set 3 (AID 743146). It counts as functional, cell-based.
The nature of test [34]: HepG2 cell cytotoxicity, dose response, cytotoxicity control, ATP luminescence, dry powder, Set4 (AID 743143). Type of test: functional, cell-based.
A short description of test [35]: inhibitors of non-replicating M. tuberculosis, dose response, luciferase, dry powder (AID 651619). The note with it: Mycobacterium tuberculosis. Type of test: functional.
Test [36] in a line: inhibitors of non-replicating M. tuberculosis, dose response, luciferase, dry powder (AID 651620). Type of test: functional. The conditions noted are these: Mycobacterium tuberculosis.
Test [37] is described as follows: P. falciparum Dd2 blood-stage growth inhibition, dose response, SYBR Green fluorescence, erythrocytes, dry powder, set 2 (AID 1159574). Type of test: functional, cell-based.
Test [38] deals with Potassium channel subfamily K member 9 (Homo sapiens, UniProt Q9NPC2). As to the kind of experiment: TASK3 (KCNK9) channel inhibitors, thallium flux, SAR follow-up, selectivity assay for TASK1 inhibitor project, cell-based, FluxOR thallium flux, concentration-response (AID 652211).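 Further: potency is for inhibitors of the channel.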 Type of test: functional.
Test [39] concerns the target Potassium channel subfamily K member 3 (Homo sapiens, UniProt O14649). As to the kind of experiment: TASK1 (KCNK3) potassium channel inhibitors, SAR follow-up, CHO cells, FluxOR thallium flux (AID 652212). Type of test: functional.

C-X-C chemokine receptor type 4, sequence (P61073 whole entry): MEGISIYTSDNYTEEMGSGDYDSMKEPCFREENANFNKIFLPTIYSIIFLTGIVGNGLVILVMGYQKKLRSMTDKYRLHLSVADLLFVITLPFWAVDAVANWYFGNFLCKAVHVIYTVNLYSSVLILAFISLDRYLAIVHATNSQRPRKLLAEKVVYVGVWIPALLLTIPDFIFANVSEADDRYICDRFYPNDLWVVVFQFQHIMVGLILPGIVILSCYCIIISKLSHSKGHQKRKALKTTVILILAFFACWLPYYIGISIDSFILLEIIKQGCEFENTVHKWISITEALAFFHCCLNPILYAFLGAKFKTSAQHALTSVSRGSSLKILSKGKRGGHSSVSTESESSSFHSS
RNA-editing ligase 1, mitochondrial, sequence (P86926 whole entry): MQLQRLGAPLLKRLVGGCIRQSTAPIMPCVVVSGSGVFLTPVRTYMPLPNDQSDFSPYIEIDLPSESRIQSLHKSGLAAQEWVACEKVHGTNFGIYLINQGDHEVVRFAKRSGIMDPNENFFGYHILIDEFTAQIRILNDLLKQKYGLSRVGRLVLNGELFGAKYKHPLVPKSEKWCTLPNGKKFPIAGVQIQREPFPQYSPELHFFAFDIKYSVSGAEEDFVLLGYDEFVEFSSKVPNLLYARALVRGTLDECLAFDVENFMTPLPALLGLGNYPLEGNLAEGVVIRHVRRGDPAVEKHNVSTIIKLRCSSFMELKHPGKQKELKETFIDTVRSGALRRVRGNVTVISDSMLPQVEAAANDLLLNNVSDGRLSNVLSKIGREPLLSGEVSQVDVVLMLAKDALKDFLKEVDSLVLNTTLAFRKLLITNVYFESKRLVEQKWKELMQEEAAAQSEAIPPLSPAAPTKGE
C-C chemokine receptor type 6, sequence (P51684 whole entry): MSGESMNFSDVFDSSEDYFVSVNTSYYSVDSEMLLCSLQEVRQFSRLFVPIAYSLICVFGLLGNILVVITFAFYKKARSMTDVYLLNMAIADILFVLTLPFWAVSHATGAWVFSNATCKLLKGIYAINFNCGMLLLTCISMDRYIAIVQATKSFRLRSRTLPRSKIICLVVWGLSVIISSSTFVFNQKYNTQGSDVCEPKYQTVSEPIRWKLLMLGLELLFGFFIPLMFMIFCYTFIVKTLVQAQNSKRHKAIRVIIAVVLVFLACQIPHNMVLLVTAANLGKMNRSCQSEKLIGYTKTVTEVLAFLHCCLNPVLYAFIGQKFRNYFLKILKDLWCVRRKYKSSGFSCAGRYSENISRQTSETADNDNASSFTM
ATP-dependent molecular chaperone HSP82, sequence (C4YTQ8 whole entry): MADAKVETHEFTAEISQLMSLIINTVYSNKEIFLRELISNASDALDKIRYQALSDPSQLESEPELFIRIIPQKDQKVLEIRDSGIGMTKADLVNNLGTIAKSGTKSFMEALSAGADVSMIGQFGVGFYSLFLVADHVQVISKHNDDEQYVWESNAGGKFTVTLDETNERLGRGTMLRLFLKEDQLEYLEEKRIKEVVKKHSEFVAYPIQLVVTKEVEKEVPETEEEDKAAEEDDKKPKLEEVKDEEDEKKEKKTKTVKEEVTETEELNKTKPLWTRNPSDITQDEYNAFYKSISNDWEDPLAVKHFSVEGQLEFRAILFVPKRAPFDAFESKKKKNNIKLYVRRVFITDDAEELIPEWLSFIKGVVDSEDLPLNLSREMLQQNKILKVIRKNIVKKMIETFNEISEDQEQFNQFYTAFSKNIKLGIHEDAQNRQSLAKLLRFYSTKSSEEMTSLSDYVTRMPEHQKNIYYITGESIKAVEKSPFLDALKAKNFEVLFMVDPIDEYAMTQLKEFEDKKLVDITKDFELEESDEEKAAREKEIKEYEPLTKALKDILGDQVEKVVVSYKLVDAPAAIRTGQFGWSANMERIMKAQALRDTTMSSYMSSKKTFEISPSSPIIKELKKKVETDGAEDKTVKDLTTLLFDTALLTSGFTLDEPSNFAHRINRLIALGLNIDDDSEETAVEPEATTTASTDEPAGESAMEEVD
NAD-dependent protein deacylase sirtuin-5, mitochondrial, sequence (Q9NXA8 whole entry): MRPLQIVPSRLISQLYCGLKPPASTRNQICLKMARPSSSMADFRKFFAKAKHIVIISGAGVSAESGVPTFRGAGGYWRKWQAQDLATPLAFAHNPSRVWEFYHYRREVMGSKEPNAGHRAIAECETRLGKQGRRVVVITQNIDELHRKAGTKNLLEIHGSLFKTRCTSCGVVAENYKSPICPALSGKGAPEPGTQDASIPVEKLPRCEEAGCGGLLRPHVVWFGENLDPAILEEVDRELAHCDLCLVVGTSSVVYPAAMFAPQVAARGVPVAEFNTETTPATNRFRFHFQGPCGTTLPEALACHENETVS
COUP transcription factor 2, sequence (P24468 whole entry): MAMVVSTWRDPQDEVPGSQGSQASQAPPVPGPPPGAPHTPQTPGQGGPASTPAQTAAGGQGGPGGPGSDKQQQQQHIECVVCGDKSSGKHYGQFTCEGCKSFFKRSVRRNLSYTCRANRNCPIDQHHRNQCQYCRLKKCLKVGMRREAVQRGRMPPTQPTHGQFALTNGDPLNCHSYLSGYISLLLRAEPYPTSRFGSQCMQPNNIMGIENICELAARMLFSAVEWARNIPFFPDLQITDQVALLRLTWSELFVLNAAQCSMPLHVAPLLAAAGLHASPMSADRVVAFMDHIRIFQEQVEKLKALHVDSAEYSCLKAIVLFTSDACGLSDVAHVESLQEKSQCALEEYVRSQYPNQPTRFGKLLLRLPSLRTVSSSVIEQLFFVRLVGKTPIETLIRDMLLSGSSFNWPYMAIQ
fMet-Leu-Phe receptor, sequence (P21462 whole entry): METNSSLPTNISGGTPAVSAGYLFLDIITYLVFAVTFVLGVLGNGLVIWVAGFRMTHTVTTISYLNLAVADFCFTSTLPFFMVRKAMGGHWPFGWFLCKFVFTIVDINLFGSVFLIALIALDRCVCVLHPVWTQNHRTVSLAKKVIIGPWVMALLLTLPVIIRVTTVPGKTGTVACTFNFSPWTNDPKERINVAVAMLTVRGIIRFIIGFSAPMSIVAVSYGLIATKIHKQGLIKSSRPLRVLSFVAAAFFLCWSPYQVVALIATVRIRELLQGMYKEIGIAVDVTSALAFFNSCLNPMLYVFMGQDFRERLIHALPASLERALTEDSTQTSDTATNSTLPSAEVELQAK
Glutathione-S-transferase, sequence (Q26513 whole entry): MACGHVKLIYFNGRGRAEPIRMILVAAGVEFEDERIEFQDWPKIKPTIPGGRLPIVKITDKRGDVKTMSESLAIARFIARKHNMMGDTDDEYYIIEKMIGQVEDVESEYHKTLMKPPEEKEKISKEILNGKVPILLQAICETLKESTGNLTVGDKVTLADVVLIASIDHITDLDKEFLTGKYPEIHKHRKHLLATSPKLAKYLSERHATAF
Potassium channel subfamily K member 3, sequence (O14649 whole entry): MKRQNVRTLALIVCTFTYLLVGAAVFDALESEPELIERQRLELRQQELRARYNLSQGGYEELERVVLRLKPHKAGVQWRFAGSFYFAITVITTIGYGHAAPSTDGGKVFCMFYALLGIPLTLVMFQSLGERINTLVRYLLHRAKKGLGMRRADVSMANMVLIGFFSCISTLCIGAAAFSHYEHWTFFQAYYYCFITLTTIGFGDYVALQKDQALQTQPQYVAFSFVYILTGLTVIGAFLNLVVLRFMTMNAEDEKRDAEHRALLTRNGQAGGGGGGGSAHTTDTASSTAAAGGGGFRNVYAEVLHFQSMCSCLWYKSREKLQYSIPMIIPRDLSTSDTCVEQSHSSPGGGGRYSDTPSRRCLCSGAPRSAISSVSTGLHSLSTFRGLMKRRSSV
Potassium channel subfamily K member 9, sequence (Q9NPC2 whole entry): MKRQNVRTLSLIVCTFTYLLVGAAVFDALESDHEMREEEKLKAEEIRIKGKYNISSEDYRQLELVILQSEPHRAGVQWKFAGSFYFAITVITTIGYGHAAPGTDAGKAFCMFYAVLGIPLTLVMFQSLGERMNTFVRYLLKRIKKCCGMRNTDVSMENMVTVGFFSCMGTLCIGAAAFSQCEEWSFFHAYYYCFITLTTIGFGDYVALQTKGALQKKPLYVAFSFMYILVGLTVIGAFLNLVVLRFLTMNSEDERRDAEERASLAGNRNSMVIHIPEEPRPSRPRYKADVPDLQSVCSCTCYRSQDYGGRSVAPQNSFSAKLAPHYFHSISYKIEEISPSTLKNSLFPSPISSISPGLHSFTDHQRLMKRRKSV
Galanin receptor type 3, sequence (O60755 whole entry): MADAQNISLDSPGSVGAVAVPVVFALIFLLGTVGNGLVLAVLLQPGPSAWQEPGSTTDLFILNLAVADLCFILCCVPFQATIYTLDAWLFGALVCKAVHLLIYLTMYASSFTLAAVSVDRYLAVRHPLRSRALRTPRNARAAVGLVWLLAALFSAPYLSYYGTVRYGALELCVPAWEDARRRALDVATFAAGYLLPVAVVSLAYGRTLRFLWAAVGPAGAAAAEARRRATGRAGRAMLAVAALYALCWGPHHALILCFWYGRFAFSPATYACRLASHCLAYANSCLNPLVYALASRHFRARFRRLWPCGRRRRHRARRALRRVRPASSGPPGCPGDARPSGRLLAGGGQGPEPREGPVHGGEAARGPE

Turning to `O=C(OCCO)c1ccccc1O`, the IC50 in test [1], in test [2], in test [3], in test [4], in test [5] and in test [6] was > 20 µM (inactive) in each case. The IC50 in [7] and in test [8] was > 20 µM (inactive) in each case.
Take `Cc1c(C(=O)NCc2cccc(C(F)(F)F)c2)sc(=O)n1Cc1ccc(C(=O)N(C)C)cc1`: the AC50 (in the test “cells [9]”; in test [10]) was > 52 µM (inactive) in each case.
Regarding `CC(=O)OC[C@@H]1CN(Cc2ccccc2)C[C@H](n2cnc3c(N(C)C(C)C)ncnc32)O1`, the AC50 in “cells [11]” is 28.8 µM (active).
As for `CC1(C)CC(N2CCN(C(c3ccccc3)c3ccccc3)CC2)=CC(=[N+]2CCCCC2)C1`, the IC50 in [12] is > 96.6 µM (inactive); in [14] it was > 80 µM (inactive). The 50% effective concentration (EC50) in the test on BJ [13] is 3.51 µM (inconclusive); with BJ [15], 2.36 µM (active); in the test with BJ [16], 3.77 µM (active); in test [17], 3.82 µM (active).
For `O=C(O)CSc1cc(NS(=O)(=O)c2cccc3cccnc23)c2ccccc2c1O`, in test [18], the CC50 is 6.1 µM (active).
On to `CC(Nc1ncnc2ccccc12)c1ccccc1` (stereo not drawn), for which the EC50 in test [19] is > 160 µM (inactive); in test [20], > 180 µM (inactive); in test [22], > 160 µM (inactive); in test [24], 0.404 µM (active); in the test “cells [27]”, > 29.9 µM (inactive). Besides, the IC50 in [21] is 2.41 µM (active); on Galanin receptor type 3 it was 0.128 µM (active); in test [14] it was > 80 µM (inactive). Also, the concentration at half-maximal activity (AC50) with INS1 is 1.98 µM (active); in test [23], 1.21 µM (active); in test [25], 0.355 µM (active); in [26], 1.14 µM (active).
For the molecule `COc1cc(C(=O)NC2CC3CCCC(C2)N3CC(=O)Nc2ccccc2Cl)cc(OC)c1OC` (stereo not drawn), the IC50 in [28] is > 79 µM (inactive) and 60.1 µM (inactive); in test [29] it was > 79 µM (inactive).
For `O=C(COC(=O)c1ccccc1OC(F)F)Nc1ccc2[nH]c(O)nc2c1`, the CC50 in test [30] was > 40 µM (active). Also, the 50% inhibitory concentration (IC50) in test [31] is > 100 µM (active).
With `CSc1ccccc1NS(=O)(=O)c1ccccc1`, on fMet-Leu-Phe receptor, the Ki is > 66.7 µM (inactive).
Consider `Cc1noc(C)c1NC(=O)Nc1ccc2c(c1)C(=O)N([C@H](C)CO)C[C@H](C)[C@@H](CN(C)Cc1ccc(C(F)(F)F)cc1)OCCCC[C@@H](C)O2`, for which the AC50 in test [32] is > 30 µM (inactive).
Turning to `COc1cc(C(=O)NCCC(=O)NC2CCCc3ccccc32)cc(OC)c1OC` (stereo not drawn), the AC50 was 26.7 µM (active) in test [33] and 21.7 µM (active) in [34].
As to `[N-]=[N+]=NCCOCCNC(=O)CCCOc1ccc(C[S+]([O-])c2nnc(-c3ccc(Cl)cc3)o2)nc1` (stereo not drawn), the IC90 in test [35] and in [36] was 8 µM (active) throughout.
Consider `O=C(c1ccccc1F)N1CC(=O)N2[C@H](C1)[C@H](c1ccc(-c3cccnc3)cc1)[C@@H]2CO`, for which, in test [37], the AC50 is 19.4 µM (active).
For the molecule `COc1ccc(F)cc1C(=O)Nc1cccc(NC(=O)c2cccc(C)c2)c1`, the IC50 in [38] is 0.87 µM (active); in test [39], 0.225 µM (active).
